Test results reported in patent publication US7332489B2, “Methods and compositions of novel triazine compounds” (Reddy US Therapeutics, Inc., priority 2003, dated 2008).
Read-outs that look alike come from different tables or passages of the source.

Key:
cells = test: Cytotoxicity/Lactate Dehydrogenase assay; format: cell-based; conditions: toxic or cause cell death; concentrations (uM) given
Method: An appropriate number of cells are plated in four 96-well plates, one plate for “day 0” and three plates for days 1-3. Cells are treated with at least one compound of the present invention in varying concentrations with and without the apoptosis inducer cisplatin (2 μM) (“+cis” or “-cis”). Unteated cells are also assayed with and without cisplatin. After transfection, the plates are incubated at 37° C. overnight.
An appropriate number of cells are plated in four 96-well plates, one plate for “day 0” and three plates for days 1-3. Cells are treated with at least one compound of the present invention in varying concentrations. The negative control cells have normal media conditions, a duplicate set of wells is treated with the composition in which the compound is provided, but there is no added compound and the positive control cells are treated with the apoptosis inducer cisplatin (2 μM). All of the cells are transfected with a vector having a promoter that is responsive to apoptosis conditions. When apoptosis occurs, the promoter is turned on and the lactic dehydrogenase gene is activated and the enzyme protein is made and active. Activity is easily detected with a color change. After transfection, the plates are incubated at 37° C. overnight.
About 8 mls of warmed alpha MEM LDH lysis buffer (2% Triton X100) and about 8 mls of culture media (1/2 dilution) are combined. Two 96-well v-bottom plates are prepared, one labeled “lysis” and one labeled “supernatant.” To lyse the cells, about 200 μl Alpha MEM lysis buffer (diluted 1/2) is added to one test plate from which the supernatant has been removed and added to the plate labeled supernatant. After mixing, about 200 μl of lysed cells are transferred to the lysis plate. Both the lysis and supernatant plates are centrifuged at about 1600 rpm for about 10 min. After centrifugation, about 100 μl of both the supernatant or lysate is transferred to corresponding 96-well flat-bottomed plates.
The assay for cytotoxicity uses the Cytotoxicity Detection Kit (LDH) from Roche Diagnostics Corp. (Indianapolis, Ind.). Using the directions provided, the dye solution is mixed and added each well of the lysate and supernatant plate and incubated for up to 20-25 min at 15-25° C. in the dark.

TNF-α induced IL-6 = test: TNF-α-induced IL-6 production determined by IL-6 ELISA; format: cell-based; conditions: for activity at 10 µM: Homo sapiens, 24 h
Method in brief: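 Human aortic endothelial cells grown to ≥90% confluence, then treated with compounds and stimuli in serum-free medium with 0.2% albumin. Secreted IL-6 in collected media measured by sandwich ELISA (2 ug/ml capture, 200 ng/ml biotinylated detection antibody, streptavidin-HRP), read at 450 nm.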

[1] = Table 5, second part, column 1, class = % of control IL6 production, read-out: Inhibition of TNF-induced IL6, production

Row | SMILES | Toxicity (cells) | melting point [°C] | other results
1 | CCN1CCCC1CNc1nc(Nc2ccc(OC(F)(F)F)cc2)nc(NC2CCCCCC2)n1 (centres unmarked) [Compound 9, N^2-cycloheptyl-N^4-[(1-ethyl-2-pyrrolidinyl)methyl]-N^6-[4-(trifluoromethoxy)phenyl]-1,3,5-triazine-2,4,6-triamine] | toxic |  | 
2 | COc1ccc(Nc2nc(Nc3ccc(OC)c(F)c3)nc(OCC3CCCCC3)n2)cc1F [Compound 115, 6-Cyclohexylmethoxy-N,N′-bis-(3-fluoro-4-methoxy-phenyl)-1,3,5-triazine-2,4-diamine] |  | 181 | 
3 | CCOC(=O)c1ccc(Nc2nc(NCC3CCCN3CC)nc(NC3CCCCCC3)n2)cc1 (centres unmarked) [Compound 14, Ethyl 4-[(4-(cycloheptylamino)-6-{[(1-ethyl-2-pyrrolidinyl)methyl]amino}-1,3,5-triazin-2-yl)-amino]benzoate] | toxic |  | 
4 | CCN1CCCC1CNc1nc(Nc2ccc(OC)c(F)c2)nc(NC2CCCCCCC2)n1 (centres unmarked) [Compound 54, N^2-cyclooctyl-N^4-[(1-ethyl-2-pyrrolidinyl)methyl]-N^6-(3-fluoro-4-methoxyphenyl)-1,3,5-triazine-2,4,6-triamine] | toxic |  | 
5 | COc1ccc(Nc2nc(OCC3CCCCC3)nc(N(C)C3CCN(C)CC3)n2)cc1Cl [Compound 119, N-(3-Chloro-4-methoxy-phenyl)-6-cyclohexylmethoxy-N′-methyl-N′-(1-methyl-piperidin-4-yl)-[1,3,5]triazine-2,4-diamine] | toxic |  | 
6 | COc1ccc(Nc2nc(NC3CCCCCC3)nc(Oc3ccccc3F)n2)cc1Cl [Compound E28, N^2-(3-chloro-4-methoxyphenyl)-N^4-cycloheptyl-6-(2-fluorophenoxy)-1,3,5-triazine-4,2-diamine] |  | 98 to 100 | 
7 | COc1ccc(Nc2nc(Cl)nc(OCC3CCCCC3)n2)cc1F [Compound 114, (4-Chloro-6-cyclohexylmethoxy-[1,3,5]triazin-2-yl)-(3-fluoro-4-methoxy-phenyl)-amine] |  | 98 | 
8 | COc1ccc(Nc2nc(NC3CCCCCC3)nc(OCC3CCCN3)n2)cc1Cl (centres unmarked) [Compound E22, N^2-(3-chloro-4-methoxyphenyl)-N^4-cycloheptyl-6-(2-azolanylmethoxy)-1,3,5-triazine-2,4-diamine] |  | 84 to 86 | 
9 | COc1ccc(Nc2nc(Cl)nc(OCC3CCCCC3)n2)cc1Cl [Compound 117, (4-Chloro-6-cyclohexylmethoxy-[1,3,5]triazin-2-yl)-(3-chloro-4-methoxy-phenyl)-amine] |  | 114 | 
10 | COc1ccc(Nc2nc(NC3CCCCCC3)nc(OC3CCCN(C(C)=O)C3)n2)cc1Cl (centres unmarked) [Compound E20, 1-[3-{4-(3-chloro-4-methoxyanilino)-6-cycloheptylamino-1,3,5-triazine-2-yloxy}piperidino]-1-ethanone] |  | 138 to 140 | 
11 | COc1ccc(Nc2nc(O)nc(NC3CCCCCC3)n2)cc1Cl [Compound 147, 4-(3-Chloro-4-methoxy-phenylamino)-6-cycloheptylamino-1,3,5-triazin-2-ol] |  | > 310 | 
12 | CCN1CCCC1CNc1nc(Nc2ccc(Cl)cc2)nc(NC2CCCCCC2)n1 (centres unmarked) [Compound 12, N^2-(4-chlorophenyl)-N^4-cycloheptyl-N^6-[(1-ethyl-2-pyrrolidinyl)methyl]-1,3,5-triazine-2,4,6-triamine] | toxic |  | 
13 | COc1ccc(Nc2nc(NC3CCCCCC3)nc(N(C)C3CCNCC3)n2)cc1Cl [Compound 146, N^2-(3-chloro-4-methoxy-phenyl)-N^4-cycloheptyl-N^6-methyl-N^6-piperidin-4-yl-1,3,5-triazine-2,4,6-triamine] |  | 114 to 116 | 
14 | COc1ccc(Nc2nc(NC3CCCCCC3)nc(N3CCSCC3)n2)cc1Cl |  | 78 to 80 | 
15 | COc1ccc(Nc2nc(NN3CCCCCC3)nc(N(C)C3CCNCC3)n2)cc1Cl |  | 81 | 
16 | CCN1CCCC1CNc1nc(Nc2ccc(Cl)c(Cl)c2)nc(NC2CCCCCC2)n1 (centres unmarked) [Compound 7, N^2-cycloheptyl-N^4-(3,4-dichlorophenyl)-N^6-[(1-ethyl-2-pyrrolidinyl)methyl]-1,3,5-triazine-2,4,6-triamine] | toxic |  | 
17 | CCN1CCCC1CNc1nc(Nc2ccc(Br)cc2)nc(NC2CCCCCC2)n1 (centres unmarked) [Compound 13, N^2-(4-bromophenyl)-N^4-cycloheptyl-N^6-[(1-ethyl-2-pyrrolidinyl)methyl]-1,3,5-triazine-2,4,6-triamine] | toxic |  | 
18 | CCN1CCCC1CNc1nc(Nc2ccc(OC)c(Cl)c2)nc(NC2CCCCCC2)n1 (centres unmarked) [Compound 136, N^2-(3-chloro-4-methoxy-phenyl)-N^4-cycloheptyl-N^6-(1-ethyl-pyrrolidin-2-ylmethyl)-1,3,5-triazine-2,4,6-triamine] | Nothing but celldebris at 3 uM verytoxic |  | 
19 | CCCCN(CCC)c1nc(Nc2ccc(OC)c(Cl)c2)nc(N(C)C2CCN(C)CC2)n1 [Compound 111, N-Butyl-N′-(3-chloro-4-methoxy-phenyl)-N″-methyl-N″-(1-methyl-piperidin-4-yl)-N-propyl-[1,3,5]triazine-2,4,6-triamine] | Toxic by eye at 50and 10 uM noblunt/round justdeath |  | % IL6 production compare to TNF stimulation of IL6 (100%), @ 5 uM (TNF-α induced IL-6; HAEC, 5 uM compound, TNF stimulation = 100%): 46%; activity at 10 µM (TNF-α induced IL-6; read-out: % IL6 production compare to TNF stimulation of IL6 (100%), Compds tested @ 10 uM HAEC, IL6): > 90%; activity at 10 µM (TNF-α induced IL-6; read-out: Inhibition of TNF-induced IL6 production): 75 to 100%
20 | CCN1CCCC1CNc1nc(Nc2cnc3ccccc3c2)nc(NC2CCCCCC2)n1 (centres unmarked) [Compound 3, N^2-cycloheptyl-N^4-[(1-ethyl-2-pyrrolidinyl)methyl]-N^6-(3-quinolinyl)-1,3,5-triazine-2,4,6-triamine] | toxic |  | activity at 10 µM (TNF-α induced IL-6; [1]): 0 to 25%
21 | CCN1CCCC1CNc1nc(Nc2ccccc2Br)nc(NC2CCCCCC2)n1 (centres unmarked) [Compound 22, N^2-(2-bromophenyl)-N^4-cycloheptyl-N^6-[(1-ethyl-2-pyrrolidinyl)methyl]-1,3,5-triazine-2,4,6-triamine] | toxic |  | 
22 | CCN1CCCC1CNc1nc(Nc2ccccc2Cl)nc(NC2CCCCCC2)n1 (centres unmarked) [Compound 21, N^2-(2-chlorophenyl)-N^4-cycloheptyl-N^6-[(1-ethyl-2-pyrrolidinyl)methyl]-1,3,5-triazine-2,4,6-triamine] | toxic |  | 
23 | CCN1CCCC1CNc1nc(Nc2ccc(OC)c(F)c2)nc(N2CCCC3CCCCC32)n1 (centres unmarked) [Compound 59, N^2-[(1-ethyl-2-pyrrolidinyl)methyl]-N^4-(3-fluoro-4-methoxyphenyl)-N^6-octahydro-1(2H)-quinolinyl-1,3,5-triazine-2,4-diamine] | toxic |  | 
24 | COc1ccc(Nc2nc(NCCN(C)C)nc(NC3CCCCCC3)n2)cc1F [Compound 93, N^2-cycloheptyl-N^4-[2-(dimethylamino)ethyl]-N^6-(3-fluoro-4-methoxyphenyl)-1,3,5-triazine-2,4,6-triamine] | toxic |  | activity at 10 µM (TNF-α induced IL-6; Table 5, first part, class = % of control IL6 production, read-out: Inhibition of TNF-induced IL6 production): 0 to 25%; activity at 10 µM (TNF-α induced IL-6; [1]): 0 to 25%
25 | CCN1CCCC1CNc1nc(Nc2cccc3cccnc23)nc(NC2CCCCCC2)n1 (centres unmarked) [Compound 5, N^2-cycloheptyl-N^4-[(1-ethyl-2-pyrrolidinyl)methyl]-N^6-(8-quinolinyl)-1,3,5-triazine-2,4,6-triamine] | toxic |  | 
26 | CCN1CCCC1CNc1nc(Nc2ccc(F)c(F)c2)nc(NC2CCCCCC2)n1 (centres unmarked) [Compound 8, N^2-cycloheptyl-N^4-(3,4-difluorophenyl)-N^6-[(1-ethyl-2-pyrrolidinyl)methyl]-1,3,5-triazine-2,4,6-triamine] | toxic |  | 
27 | CCN1CCCC1CNc1nc(Nc2cccc(F)c2)nc(NC2CCCCCC2)n1 (centres unmarked) [Compound 16, N^2-cycloheptyl-N^4-[(1-ethyl-2-pyrrolidinyl)methyl]-N^6-(3-fluorophenyl)-1,3,5-triazine-2,4,6-triamine] | toxic |  | 
28 | CCN1CCCC1CNc1nc(NC2CCCCCC2)nc(N(C)c2ccc(OC(F)(F)F)cc2)n1 (centres unmarked) [Compound 47, N^2-cycloheptyl-N^4-[(1-ethyl-2-pyrrolidinyl)methyl]-N^6-methyl-N^6-[4-(trifluoromethoxy)phenyl]-1,3,5-triazine-2,4,6-triamine] | toxic |  | 
29 | CCN1CCCC1CNc1nc(Nc2ccc(Oc3ccccc3)cc2)nc(NC2CCCCCC2)n1 (centres unmarked) [Compound 36, N^2-cycloheptyl-N^4-[(1-ethyl-2-pyrrolidinyl)methyl]-N^6-(4-phenoxyphenyl)-1,3,5-triazine-2,4,6-triamine] | toxic |  | 
